# According to BindingDB's records for doi:10.1016/j.bmcl.2010.01.018 (Schering-Plough Research Institute, 2010):
# Assay: Inhibition of Aurora 2 kinase
smiles,measurement,value
COc1c(O)cc2c3c(cc4ccc(O)cc4c13)NC2=O [aristololactam A IIIa],IC50,2140 nM
